# Measurements taken from patent US11491132B2, “Methods for treating thrombocytopenia” (Enzychem Lifesciences Corporation, priority 2014, dated 2022).
# Columns and labels:
# [1] = system: PKCθ/p38 MAPK/ERK pathway; experiment: Dephosphorylation of p38 MAPK and ERK1/2 in PLAG-treated RBL-2H3 cells, western blot; assay type: cell-based; details: PLAG pre-incubated RBL-2H3 cells, IgE-antigen complex stimulation
# Method: Dephosphorylation of p38 MAPK and ERK1/2 in PLAG-treated RBL-2H3 cells is determined by western blot analysis using anti-phospho-p38 and anti-phospho-ERK1/2 respectively. To activate the p38 and ERK1/2 in RBL-2H3 cells, the cells are sensitized with 50 ng/mL of anti-DNP-IgE overnight. After washing with PBS three times, 20 ng/ml of DNP-HSA is added. Each cell lysate for western blot is prepared in the PLAG-treated RBL-2H3 cells in a dose-dependent manner and incubated for the same time (15 min). β-actin is used as internal controls. ERK1/2 and p38 phosphorylation start immediately after IgE-antigen complex stimulation and remain sufficiently activated for 5 min.
# STAT1 = molecular target: T1, STAT1 (Homo sapiens, UniProt P42224); experiment: Reporter assay for STAT1 transcriptional activity in HepG2 cells; assay type: cell-based; design: For the STAT1 assay, gene transfected HepG2 (human hepatocyte cell line) is treated with 10 ng of IFN-γ; endogenous in cells; host or cells: HepG2 (gene transfected); details: gene transfected HepG2, 10 ng IFN-γ, PLAG 0.01-10 μg/ml, 12 hours incubation
# T1 sequence (P42224 1-750): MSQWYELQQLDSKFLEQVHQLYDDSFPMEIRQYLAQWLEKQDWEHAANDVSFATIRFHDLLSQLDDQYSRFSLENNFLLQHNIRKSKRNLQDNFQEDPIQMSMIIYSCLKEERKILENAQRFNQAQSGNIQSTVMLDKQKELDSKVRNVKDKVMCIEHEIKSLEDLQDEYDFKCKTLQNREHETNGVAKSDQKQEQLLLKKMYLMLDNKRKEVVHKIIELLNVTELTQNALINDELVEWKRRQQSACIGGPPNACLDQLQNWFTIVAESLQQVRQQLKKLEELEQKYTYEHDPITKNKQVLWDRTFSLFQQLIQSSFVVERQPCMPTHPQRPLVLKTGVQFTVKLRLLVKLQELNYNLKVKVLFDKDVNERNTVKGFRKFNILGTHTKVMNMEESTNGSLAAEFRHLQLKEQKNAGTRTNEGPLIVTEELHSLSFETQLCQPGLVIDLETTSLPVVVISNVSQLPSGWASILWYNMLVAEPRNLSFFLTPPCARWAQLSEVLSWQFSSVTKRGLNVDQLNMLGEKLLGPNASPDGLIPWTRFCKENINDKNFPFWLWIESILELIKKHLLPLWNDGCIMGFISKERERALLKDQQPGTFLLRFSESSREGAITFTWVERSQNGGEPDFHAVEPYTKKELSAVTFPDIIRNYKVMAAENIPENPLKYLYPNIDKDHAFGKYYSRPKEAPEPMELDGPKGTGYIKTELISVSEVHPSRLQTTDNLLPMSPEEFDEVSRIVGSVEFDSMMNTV
# Method: By using STAT6 inhibitor (S6I), it is confirmed that the reduction of Complement 3 in HepG2 cells (human hepatocyte cell line) is regulated by STAT6. […] It is also confirmed that PLAG has selective efficacy on STAT6 over STAT1. FIG. 1 presents graphs showing STAT1 and STAT6 transcriptional activity in the PLAG treated HepG2 cells. NC refers to the unstimulated control cell. For the STAT1 assay, gene transfected HepG2 (human hepatocyte cell line) is treated with 10 ng of IFN-γ and serially diluted PLAG is added (0.01 μg/ml, 0.1 μg/ml, 1 μg/ml, and 10 μg/ml as shown) to see its effect on gene expression in the stimulated cell. For the STAT6 assay, gene transfected HepG2 cells are treated with 10 ng of IL-4 and again serially diluted PLAG is added (0.01 μg/ml, 0.1 μg/ml, 1 μg/ml, and 10 μg/ml as shown) to see its effect on gene expression in the stimulated cell. The assay is carried out following 12 hours incubation of treated cells.
# C3 = C3 expression in IL-4/TNF-α treated HMC-1 cells, RT-PCR; assay type: cell-based, human; details: HMC-1 cells treated with IL-4 and TNF-α; PLAG 0.1 and 1 μg/mL pre-treatment, or S6I
# Method: A blood cell line, HMC-1 (human mast cell, American Type Culture Collection, ATCC, Rockville, Md.) is incubated and maintained at 37° C. under 5% CO2 humid conditions. The medium is IMDM (Life Technologies, Karlsruhe, Germany) containing 10% Fetal Calf Serum (FCS, HyClone, Logan, Utah), 2 mM […], 100 μg/ml penicillin, 100 μg/ml streptomycin (Life Technologies). The cultured HMC-1 cells (1×10^6 cell/ml) are pre-treated with 0.1 and 1 μg/mL concentration of PLAG, followed by treating with IL-4 (5 ng) and/or TNF-α (10 ng) to induce cellular activities.
# The expressed C3 and its mRNA level change are observed by using RT-PCR (Reverse Transcriptase Polymerase Chain Reaction). The RT-PCR is carried out as follows: the total RNA is separated by the standard protocol and cDNA is synthesized using AccuScript High Fidelity 1st Strand cDNA Synthesis Kit (Stratagene) by the manufacturer's instructions. Two-step RT-PCR reaction is conducted using Oligo-dT primer and reverse transcriptase, pair of primer and Taq polymerase (Takara, Shiga, Japan). […] The product of PCR is separated using 1.5% agarose gel, dyed with ethidium bromide (EtBr), and visualized with Gel Doc 2000 UV trans-illuminator (Bio-Rad Laboratories, Hercules, Calif., USA), and the experimental data is analyzed using Quantity One software (Bio-Rad Laboratories).
structure (smiles),measurement,setting,value
"CCCCC/C=C\C/C=C\CCCCCCCC(=O)OC(COC(C)=O)COC(=O)CCCCCCCCCCCCCCC (racemic) [PLAG, 1-palmitoyl-2-linoleoyl-3-acetylglycerol]",ERK1/2 and p38 phosphorylation,[1],down-regulated
same,"STAT1 expression (transcriptional activity, reporter)",STAT1,no effect
same,expression of C3,C3,suppressed by PLAG on a concentration dependent basis
